The target in one test is T1, hA1 receptor (Homo sapiens, UniProt P30542).
T1 sequence (P30542 1-326): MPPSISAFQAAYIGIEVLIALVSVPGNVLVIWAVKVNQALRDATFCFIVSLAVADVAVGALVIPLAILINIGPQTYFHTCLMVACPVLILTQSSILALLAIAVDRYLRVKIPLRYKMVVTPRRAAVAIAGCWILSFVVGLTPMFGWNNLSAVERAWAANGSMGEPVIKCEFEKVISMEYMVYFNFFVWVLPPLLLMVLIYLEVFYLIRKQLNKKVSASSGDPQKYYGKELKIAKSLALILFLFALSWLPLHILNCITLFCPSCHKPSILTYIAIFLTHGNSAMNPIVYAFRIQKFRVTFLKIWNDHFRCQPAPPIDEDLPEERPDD
Kind of test: radioligand binding to human A1 receptors, CHO-K1 membranes, [3H]DPCPX. The following applies: average of duplicate experiments. The protocol: The radioligand-binding assays for adenosine receptors were performed at Eurofins Discovery Services (Panlabs, Taiwan). Briefly, stock solutions of the compounds were prepared in DMSO and further diluted with the incubation buffer to the desired concentration. Final DMSO concentrations in the assay were 1.0%. For adenosine A1 screening, a 10 μg aliquots of membrane preparations from human recombinant CHO-K1 cells stably expressing A1 receptors (CHO-K1-hA1AR clone3, EPDST, R200510) were incubated with 1 nM [^3H]DPCPX in incubation buffer (20 mM HEPES, pH 7.4, 10 mM MgCl2, 100 mM NaCl 1.40 nM) for 90 min at 25 °C. Nonspecific binding was estimated in the presence of 100 μM R(-)-PIA. Membranes were filtered and washed 3 times and the filters were counted to determine specifically bound [^3H]DPCPX. Chemical compounds were screened at 10 μM. For A2A screening, membrane preparations from human recombinant HEK-293 cells stably expressing A2A receptors (PerkinElmer, RBHA2AM) were incubated with 0.05 μM [^3H]CGS-21680 in incubation buffer (50 mM Tris-HCl, pH 7.4, 10 mM MgCl2, 1 mM EDTA, 2 U/mL Adenosine Deaminase) for 90 min at 25 °C. Nonspecific binding was estimated in the presence of 50.0 μM NECA. Membranes were filtered and washed 3 times and the filters were counted to determine [^3H]CGS-21680 specifically bound. For A2B screening, membrane preparations from human recombinant HEK-293 cells stably expressing A2B receptors (PerkinElmer, ES-013-M) were incubated with 1.6 nM [^3H]MRS1754 in incubation buffer (50 mM Tris-HCl, pH 6.5, 5 mM MgCl2, 1 mM EDTA, 0.01 % Bacitracin) for 90 min at 25 °C. Nonspecific binding was estimated in the presence of 100 μM NECA. Membranes were filtered and washed 3 times and the filters were counted to determine [^3H]MRS1754 specifically bound. For A3 screening, membrane preparations from human recombinant CHO-K1 cells stably expressing A3 receptors (PerkinElmer, ES-012-M) were incubated with 0.5 nM [^125I]AB-MECA in incubation buffer (25 mM HEPES, pH 7.4, 5 mM MgCl2, 1 mM CaCl2, 0.1 % BSA) for 60 min at 25 °C. Nonspecific binding was estimated in the presence of 1.0 μM IB-MECA.
IC50 values were determined by a nonlinear, least-squares regression analysis using MathIQ^TM (ID Business Solutions Ltd., Guildford, UK). Where inhibition constants (Ki) were presented, the Ki values were calculated using Cheng and Prusoff equation [18] using the observed IC50 of the compound, the concentration of radioligand employed in the assay, and the historical values for the KD of the ligand (obtained experimentally at Eurofins Panlabs, Inc.). The Hill coefficient (nH), which defines the slope of the competitive binding curve, was calculated using MathIQ^TM.

The target in a further test is T2, hA2A receptors (Homo sapiens, UniProt P29274).
T2 construct: purchased PerkinElmer RBHA2AM
Kind of test: radioligand binding to human A2A receptors, HEK-293 membranes. The following applies: average of duplicate experiments. The method, then:
The binding affinities of synthesized compounds to human A2A receptors (hA2AR) were measured by assessing competitive binding of ligands to radioligand […] using membrane preparations of human recombinant HEK-293 cells expressing human A2A receptors.
The radioligand-binding assays for adenosine receptors were performed at Eurofins Discovery Services (Panlabs, Taiwan). Briefly, stock solutions of the compounds were prepared in DMSO and further diluted with the incubation buffer to the desired concentration. Final DMSO concentrations in the assay were 1.0%. […] Nonspecific binding was estimated in the presence of 100 μM R(-)-PIA. Membranes were filtered and washed 3 times and the filters were counted to determine specifically bound [^3H]DPCPX. Chemical compounds were screened at 10 μM. […] Nonspecific binding was estimated in the presence of 50.0 μM NECA. […] Nonspecific binding was estimated in the presence of 100 μM NECA. Membranes were filtered and washed 3 times and the filters were counted to determine [^3H]MRS1754 specifically bound. […] Nonspecific binding was estimated in the presence of 1.0 μM IB-MECA.
IC50 values were determined by a nonlinear, least-squares regression analysis using MathIQ^TM (ID Business Solutions Ltd., Guildford, UK). […] The Hill coefficient (nH), which defines the slope of the competitive binding curve, was calculated using MathIQ^TM.

T2 sequence (P29274 whole entry): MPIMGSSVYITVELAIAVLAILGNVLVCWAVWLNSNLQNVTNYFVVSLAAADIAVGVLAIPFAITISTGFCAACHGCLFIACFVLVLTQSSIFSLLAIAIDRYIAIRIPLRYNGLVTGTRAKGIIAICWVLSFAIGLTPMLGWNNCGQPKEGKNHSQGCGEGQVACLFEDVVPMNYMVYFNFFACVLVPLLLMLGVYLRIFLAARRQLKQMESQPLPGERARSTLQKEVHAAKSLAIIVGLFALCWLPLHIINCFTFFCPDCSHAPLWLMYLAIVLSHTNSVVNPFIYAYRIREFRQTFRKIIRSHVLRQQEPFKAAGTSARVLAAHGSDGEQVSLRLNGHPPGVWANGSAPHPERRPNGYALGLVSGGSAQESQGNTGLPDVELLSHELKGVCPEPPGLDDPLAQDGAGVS

Turning to `N#Cc1ccnc(-c2nc(N)nc3c2cnn3Cc2ccc(N)cc2F)c1` [11e, 2-(6-Amino-1-(4-amino-2-fluorobenzyl)-1H-pyrazolo[3,4-d]pyrimidin-4-yl)isonicotinonitrile], the Ki (usually the dissociation constant of the complex between target and ligand, obtained from inhibition or displacement) on hA1 receptor came out at 710 nM; on hA2A receptors, 120 nM.

Regarding `Cc1cc(Cn2ncc3c(-c4cc(C#N)ccn4)nc(N)nc32)ccc1N` [11k, 2-(6-Amino-1-(4-amino-3-methylbenzyl)-1H-pyrazolo[3,4-d]pyrimidin-4-yl)isonicotinonitrile], the Ki came out at 510 nM at hA1 receptor and 65 nM at hA2A receptors.

Regarding `N#Cc1cncc(-c2nc(N)nc3c2cnn3Cc2c(F)cc(N)cc2F)c1` [11r, 5-[6-Amino-1-[(4-amino-2,6-difluoro-phenyl)methyl]pyrazolo[3,4-d]pyrimidin-4-yl]pyridine-3-carbonitrile], the Ki came out at 10000 nM at hA1 receptor and 1220 nM at hA2A receptors.

With `N#Cc1cccc(-c2nc(N)nc3c2cnn3Cc2ccc(N)cc2)n1` [11b, 6-(6-Amino-1-(4-aminobenzyl)-1H-pyrazolo[3,4-d]pyrimidin-4-yl)picolinonitrile], the Ki on hA1 receptor was 650 nM; at hA2A receptors, 31 nM.

`N#Cc1cccc(-c2nc(N)nc3c2cnn3Cc2ccc(N)cc2)c1F` [4b, 3-(6-Amino-1-(4-aminobenzyl)-1H-pyrazolo[3,4-d]pyrimidin-4-yl)-2-fluorobenzonitrile]: at hA2A receptors, the Ki stood at 19.4 nM.

Take `N#Cc1ccnc(-c2nc(N)nc3c2cnn3Cc2c(F)cc(N)cc2F)c1` [11p, 2-[6-Amino-1-[(4-amino-2,6-difluoro-phenyl)methyl]pyrazolo[3,4-d]pyrimidin-4-yl]pyridine-4-carbonitrile]: the Ki at hA1 receptor came out at 380 nM; at hA2A receptors, 47 nM.

As for `N#Cc1cncc(-c2nc(N)nc3c2cnn3Cc2ccc(N)cc2)c1` [11c, 5-(6-Amino-1-(4-aminobenzyl)-1H-pyrazolo[3,4-d]pyrimidin-4-yl)nicotinonitrile], the values for the Ki on hA1 receptor and at hA2A receptors were 32000 nM and 4790 nM, respectively.

As for `N#Cc1cccc(-c2nc(N)nc3c2cnn3Cc2c(F)cc(N)cc2F)c1F` [11u, 3-(6-Amino-1-(4-amino-2,6-difluorobenzyl)-1H-pyrazolo[3,4-d]pyrimidin-4-yl)-2-fluorobenzonitrile], the Ki was found to be 30 nM on hA1 receptor and 6.45 nM at hA2A receptors.

For `Cc1cc(Cn2ncc3c(-c4cccc(C#N)n4)nc(N)nc32)ccc1N` [11l, 6-(6-Amino-1-(4-amino-3-methylbenzyl)-1H-pyrazolo[3,4-d]pyrimidin-4-yl)picolinonitrile], the Ki on hA1 receptor is 180 nM; on hA2A receptors, 6.39 nM.

Compound `CCn1c(=O)c2c(nc(/C=C/c3ccc(OC)c(OC)c3)n2C)n(CC)c1=O` [Istradefylline, reference compound] registered a Ki on hA1 receptor of 610 nM. In other words, the sub-micromolar range.

For `N#Cc1cc(-c2nc(N)nc3c2cnn3Cc2c(F)cc(N)cc2F)ccn1` [11s, 4-[6-Amino-1-[(4-amino-2,6-difluoro-phenyl)methyl]pyrazolo[3,4-d]pyrimidin-4-yl]pyridine-2-carbonitrile], at hA2A receptors, the Ki was 4920 nM.

Regarding `N#Cc1cccc(-c2nc(N)nc3c2cnn3Cc2c(F)cc(N)cc2F)n1` [11q, 6-[6-Amino-1-[(4-amino-2,6-difluoro-phenyl)methyl]pyrazolo[3,4-d]pyrimidin-4-yl]pyridine-2-carbonitrile], the Ki came out at 150 nM on hA1 receptor and 6.84 nM on hA2A receptors.

With `N#Cc1cncc(-c2nc(N)nc3c2cnn3Cc2ccc(N)cc2F)c1` [11g, 5-(6-Amino-1-(4-amino-2-fluorobenzyl)-1H-pyrazolo[3,4-d]pyrimidin-4-yl)nicotinonitrile], the Ki on hA1 receptor is 32800 nM; on hA2A receptors it was 2640 nM.

Regarding `N#Cc1ccnc(-c2nc(N)nc3c2cnn3Cc2ccc(N)cc2)c1` [11a, 2-(6-Amino-1-(4-aminobenzyl)-1H-pyrazolo[3,4-d]pyrimidin-4-yl)isonicotinonitrile], the Ki at hA1 receptor stood at 2470 nM; on hA2A receptors, 310 nM.

`N#Cc1cccc(-c2nc(N)nc3c2cnn3Cc2ccc(N)cc2F)n1` [11f, 6-[6-Amino-1-[(4-amino-2-fluoro-phenyl)methyl]pyrazolo[3,4-d]pyrimidin-4-yl]pyridine-2-carbonitrile]: the Ki is 160 nM at hA1 receptor and 10.6 nM on hA2A receptors.

Take `Cc1cc(Cn2ncc3c(-c4cncc(C#N)c4)nc(N)nc32)ccc1N` [11m, 5-(6-Amino-1-(4-amino-3-methylbenzyl)-1H-pyrazolo[3,4-d]pyrimidin-4-yl)nicotinonitrile]: the results for the Ki on hA1 receptor and at hA2A receptors were 21200 nM and 2480 nM, respectively.

With `Cc1cc(Cn2ncc3c(-c4cccc(C#N)c4)nc(N)nc32)ccc1N` [compound 8, 3-(6-Amino-1-(4-amino-3-methylbenzyl)-1H-pyrazolo[3,4-d]pyrimidin-4-yl)benzonitrile], the figures for the Ki at hA1 receptor and at hA2A receptors were 110 nM and 11.1 nM, respectively.

`N#Cc1cccc(-c2nc(N)nc3c2cnn3Cc2ccc(N)cc2F)c1F` [11j, 3-(6-Amino-1-(4-amino-2-fluorobenzyl)-1H-pyrazolo[3,4-d]pyrimidin-4-yl)-2-fluorobenzonitrile]: the figures for the Ki at hA1 receptor and at hA2A receptors were 63 nM and 16.4 nM, respectively.

`Cc1cc(Cn2ncc3c(-c4ccnc(C#N)c4)nc(N)nc32)ccc1N` [11n, 4-(6-Amino-1-(4-amino-3-methylbenzyl)-1H-pyrazolo[3,4-d]pyrimidin-4-yl)picolinonitrile]: the figures for the Ki on hA1 receptor and at hA2A receptors were 21300 nM and 1150 nM, respectively.

In the case of `N#Cc1cccc(-c2nc(N)nc3c2cnn3Cc2ccc(N)cc2F)c1` [11i, 3-(6-Amino-1-(4-amino-2-fluorobenzyl)-1H-pyrazolo[3,4-d]pyrimidin-4-yl)benzonitrile], the Ki at hA1 receptor is 160 nM; on hA2A receptors it was 12.1 nM.

As for `N#Cc1cccc(-c2nc(N)nc3c2cnn3Cc2c(F)cc(N)cc2F)c1` [11t, 3-[6-Amino-1-[(4-amino-2,6-difluoro-phenyl)methyl]pyrazolo[3,4-d]pyrimidin-4-yl]benzonitrile], the inhibition constant Ki came to 50 nM at hA1 receptor and 7.42 nM on hA2A receptors.

As to `N#Cc1cc(-c2nc(N)nc3c2cnn3Cc2ccc(N)cc2)ccn1` [11d, 4-(6-Amino-1-(4-aminobenzyl)-1H-pyrazolo[3,4-d]pyrimidin-4-yl)picolinonitrile], the Ki came out at 8530 nM at hA1 receptor and 4720 nM on hA2A receptors.

`N#Cc1cc(-c2nc(N)nc3c2cnn3Cc2ccc(N)cc2F)ccn1` [11h, 4-(6-Amino-1-(4-amino-2-fluorobenzyl)-1H-pyrazolo[3,4-d]pyrimidin-4-yl)picolinonitrile]: the inhibitory constant (Ki) at hA1 receptor stood at 28000 nM; at hA2A receptors it was 3190 nM.

With `N#Cc1cccc(-c2nc(N)nc3c2cnn3Cc2ccc(N)cc2)c1` [4a, 3-(6-Amino-1-(4-aminobenzyl)-1H-pyrazolo[3,4-d]pyrimidin-4-yl)benzonitrile], affinity at hA2A receptors was put at a Ki of 16.4 nM.

Values taken from article PMC9394284, “Discovery of Novel Dual Adenosine A2A and A1 Receptor Antagonists with 1H-Pyrazolo[3,4-d]pyrimidin-6-amine Core Scaffold as Anti-Parkinson’s Disease Agents” (Pharmaceuticals, 2022).
